Literature values, collected in patent publication US20220160758A1, “ANTIVIRAL, ANTIBACTERIAL AND/OR ANTI FUNGAL COMPOSITIONS, APPLICATIONS AND THERAPY” (AVITAS BIO CORP., priority 2020, published 2022).

What was measured:
[1] = tested on: gram-positive and gram-negative microorganisms; settings: at the concentrations tested
[2] = tested on: bacteriophage PR4; settings: in vitro
[3] = tested on: bacteriophage

SMILES	growth inhibition [1]	inhibition of viral replication [2]	inactivating the virus [3]
CCCCC/C=C\C/C=C\C/C=C\C/C=C\CCCC(=O)O [arachidonic acid]	not inhibitory	moderately effective	–
CCCCCCCC/C=C\CCCCCCCC(=O)O [oleic acid]	–	most effective	most effective
CCCCCC/C=C\CCCCCCCC(=O)O [palmitoleic acid]	–	most effective	–
